Test results from ChEMBL document CHEMBL1127263, “Synthesis of B-NOR-4-AZA-5-androstane compound as 5-reductase inhibitor” (Bioorg Med Chem Lett, 1994).

Target: Steroid 5-alpha-reductase (Rattus norvegicus) (UniProt P24008+P31214)
Assay: Inhibition of rat Steroid 5-alpha-reductase was determined at 10e-8 M concentration
Type: protein assay

Sequence of Steroid 5-alpha-reductase (Rattus norvegicus) (P24008 whole entry, looked up): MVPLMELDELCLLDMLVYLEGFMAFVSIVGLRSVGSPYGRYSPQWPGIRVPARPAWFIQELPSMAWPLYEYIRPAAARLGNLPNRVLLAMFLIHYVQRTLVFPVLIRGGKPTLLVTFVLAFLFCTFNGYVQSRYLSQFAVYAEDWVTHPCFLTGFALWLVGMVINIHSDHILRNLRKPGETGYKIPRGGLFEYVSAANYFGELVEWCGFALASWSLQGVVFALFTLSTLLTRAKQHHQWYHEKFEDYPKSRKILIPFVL
Sequence of Steroid 5-alpha-reductase (Rattus norvegicus) (P31214 whole entry, looked up): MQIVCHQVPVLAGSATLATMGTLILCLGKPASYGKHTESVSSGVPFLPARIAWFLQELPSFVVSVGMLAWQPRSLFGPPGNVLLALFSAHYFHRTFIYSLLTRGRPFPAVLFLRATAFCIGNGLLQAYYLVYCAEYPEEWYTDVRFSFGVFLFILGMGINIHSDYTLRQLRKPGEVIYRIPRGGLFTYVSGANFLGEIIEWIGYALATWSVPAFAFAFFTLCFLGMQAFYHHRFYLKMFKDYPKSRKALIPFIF

CC12CCC3C(C[C@H]4NC(=O)CCC34C)C1CCC2C(=O)NC(c1ccccc1)c1ccccc1 (stereo partly specified)
inhibition: 63%
